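These data come from cells grown in 96-well plates and exposed to compound for 48 hours at five concentrations. GI50: concentration for 50% inhibition of growth.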 Activity calls are given as the source filed them. Rule as the data show it: active = GI50 up to about 1.1 µM and inactive = higher.
Experiments:
Test in all cases: NCI tumour cell line growth inhibition, 48 h
786-0 = test system: 786-0
TK-10 = test system: TK-10
A549 = test system: A549
M14 = test system: M14
SNB-78 = test system: SNB-78
RPMI-8226 = test system: RPMI-8226
HL-60 = test system: HL-60
CAKI-1 = test system: CAKI-1
CCRF-CEM = test system: CCRF-CEM
SK-MEL-2 = test system: SK-MEL-2
RXF 631 = test system: RXF 631
UACC-62 = test system: UACC-62
UO-31 = test system: UO-31
OVCAR-3 = test system: OVCAR-3
SF-539 = test system: SF-539
SF-295 = test system: SF-295
MOLT-4 = test system: MOLT-4
ACHN = test system: ACHN
U-251 = test system: U-251
EKVX = test system: EKVX
OVCAR-8 = test system: OVCAR-8
HCT-116 = test system: HCT-116
DMS-114 = test system: DMS-114
SK-MEL-28 = test system: SK-MEL-28
Malme-3M = test system: Malme-3M
NCI-H460 = test system: NCI-H460
KM-20L2 = test system: KM-20L2
SR = test system: SR
HCT-15 = test system: HCT-15
NCI-H226 = test system: NCI-H226
IGROV-1 = test system: IGROV-1
DMS-273 = test system: DMS-273
OVCAR-5 = test system: OVCAR-5
SF-268 = test system: SF-268
OVCAR-4 = test system: OVCAR-4
SK-MEL-5 = test system: SK-MEL-5
RXF 393 = test system: RXF 393
A498 = test system: A498
HOP-62 = test system: HOP-62
SK-OV-3 = test system: SK-OV-3
SNB-19 = test system: SNB-19
KM12 = test system: KM12
COLO 205 = test system: COLO 205
SW-620 = test system: SW-620
M19-MEL = test system: M19-MEL
SNB-75 = test system: SNB-75
LOX IMVI = test system: LOX IMVI
HCC 2998 = test system: HCC 2998
K562 = test system: K562
HOP-92 = test system: HOP-92
NCI-H522 = test system: NCI-H522
NCI-H23 = test system: NCI-H23
UACC-257 = test system: UACC-257
SN12C = test system: SN12C
HT-29 = test system: HT-29
LXFL 529 = test system: LXFL 529
DLD-1 = test system: DLD-1
HOP-18 = test system: HOP-18
XF498 = test system: XF498

With `N#Cc1ccc(/C=N/C23CC4CC(CC(C4)C2)C3)cc1` the GI50 (786-0) was > 100 µM (inactive), the GI50 (TK-10) was > 100 µM (inactive) and the GI50 (A549) was > 100 µM (inactive). For the same compound, the GI50 (M14) was > 100 µM (inactive), the GI50 (SNB-78) was > 100 µM (inactive) and the GI50 (RPMI-8226) was > 100 µM (inactive). The GI50 (HL-60) was 27 µM (inactive), the GI50 (CAKI-1) was > 100 µM (inactive) and the GI50 (CCRF-CEM) was 96.8 µM (inactive). For the same compound, the GI50 (SK-MEL-2) was > 100 µM (inactive), the GI50 (RXF 631) was 32.5 µM (inactive) and the GI50 (UACC-62) was > 100 µM (inactive). For the same compound, the GI50 (UO-31) was > 100 µM (inactive), the GI50 (OVCAR-3) was > 100 µM (inactive) and the GI50 (SF-539) was > 100 µM (inactive). The GI50 (SF-295) was > 100 µM (inactive), the GI50 (MOLT-4) was 78.5 µM (inactive) and the GI50 (ACHN) was > 100 µM (inactive). For the same compound, the GI50 (U-251) was > 100 µM (inactive), the GI50 (EKVX) was > 100 µM (inactive) and the GI50 (OVCAR-8) was > 100 µM (inactive). For the same compound, the GI50 (HCT-116) was 39.4 µM (inactive), the GI50 (DMS-114) was 56 µM (inactive) and the GI50 (SK-MEL-28) was > 100 µM (inactive). For the same compound, the GI50 (Malme-3M) was > 100 µM (inactive), the GI50 (NCI-H460) was > 100 µM (inactive) and the GI50 (KM-20L2) was > 100 µM (inactive). For the same compound, the GI50 (SR) was > 100 µM (inactive), the GI50 (HCT-15) was > 100000 nM and the GI50 (NCI-H226) was > 100 µM (inactive). The GI50 (IGROV-1) was > 100 µM (inactive), the GI50 (DMS-273) was 98.2 µM (inactive) and the GI50 (OVCAR-5) was > 100 µM (inactive). The GI50 (SF-268) was > 100 µM (inactive), the GI50 (OVCAR-4) was > 100 µM (inactive) and the GI50 (SK-MEL-5) was > 10 µM (inactive). For the same compound, the GI50 (RXF 393) was > 100 µM (inactive), the GI50 (A498) was > 100 µM (inactive) and the GI50 (HOP-62) was > 100 µM (inactive). The GI50 (SK-OV-3) was > 100 µM (inactive), the GI50 (SNB-19) was > 100 µM (inactive) and the GI50 (KM12) was > 100 µM (inactive). For the same compound, the GI50 (COLO 205) was > 100 µM (inactive), the GI50 (SW-620) was > 100 µM (inactive) and the GI50 (M19-MEL) was > 100 µM (inactive). For the same compound, the GI50 (SNB-75) was > 10 µM (inactive), the GI50 (LOX IMVI) was 76.6 µM (inactive) and the GI50 (HCC 2998) was > 100 µM (inactive). For the same compound, the GI50 (K562) was 39.5 µM (inactive), the GI50 (HOP-92) was 83.9 µM (inactive) and the GI50 (NCI-H522) was > 100 µM (inactive). For the same compound, the GI50 (NCI-H23) was > 100 µM (inactive), the GI50 (UACC-257) was > 100 µM (inactive) and the GI50 (SN12C) was > 100 µM (inactive). The GI50 (HT-29) was 63.1 µM (inactive).

With `CCN(CC)CCNc1ccc(C)c2sc3ccc(O)cc3c(=O)c12` the GI50 (786-0) was 0.655 µM (active), the GI50 (TK-10) was 3.4 µM (inactive) and the GI50 (A549) was < 0.0431 µM (active). The GI50 (M14) was 1.19 µM (inactive), the GI50 (SNB-78) was 1.76 µM (inactive) and the GI50 (RPMI-8226) was 1.05 µM (active). For the same compound, the GI50 (HL-60) was 0.106 µM (active), the GI50 (CAKI-1) was 5.73 µM (inactive) and the GI50 (CCRF-CEM) was 0.0991 µM (active). The GI50 (SK-MEL-2) was 1.79 µM (inactive), the GI50 (UACC-62) was 0.986 µM (active) and the GI50 (LXFL 529) was 1.28 µM (inactive). For the same compound, the GI50 (UO-31) was 1.14 µM (inactive), the GI50 (OVCAR-3) was 2.15 µM (inactive) and the GI50 (SF-539) was 1.15 µM (inactive). The GI50 (SF-295) was 0.27 µM (active), the GI50 (DLD-1) was 1.66 µM (inactive) and the GI50 (MOLT-4) was < 0.012 µM (active). For the same compound, the GI50 (ACHN) was 0.201 µM (active), the GI50 (HOP-18) was 1.34 µM (inactive) and the GI50 (U-251) was 1.09 µM (active). For the same compound, the GI50 (EKVX) was 10.2 µM (inactive), the GI50 (OVCAR-8) was 1.37 µM (inactive) and the GI50 (HCT-116) was 1.15 µM (inactive). For the same compound, the GI50 (DMS-114) was 0.982 µM (active), the GI50 (SK-MEL-28) was 1.49 µM (inactive) and the GI50 (Malme-3M) was 1.15 µM (inactive). For the same compound, the GI50 (NCI-H460) was < 0.0128 µM (active), the GI50 (XF498) was 1.2 µM (inactive) and the GI50 (KM-20L2) was 2.14 µM (inactive). For the same compound, the GI50 (SR) was 0.0149 µM (active), the GI50 (HCT-15) was 923 nM and the GI50 (NCI-H226) was 0.466 µM (active). For the same compound, the GI50 (IGROV-1) was 1.23 µM (inactive), the GI50 (DMS-273) was 0.162 µM (active) and the GI50 (OVCAR-5) was 4.1 µM (inactive). For the same compound, the GI50 (SF-268) was 1.8 µM (inactive), the GI50 (OVCAR-4) was 2.7 µM (inactive) and the GI50 (SK-MEL-5) was 0.851 µM (active). For the same compound, the GI50 (RXF 393) was 2.51 µM (inactive), the GI50 (A498) was 1.33 µM (inactive) and the GI50 (HOP-62) was 0.274 µM (active). For the same compound, the GI50 (SK-OV-3) was 1.52 µM (inactive), the GI50 (SNB-19) was 1.82 µM (inactive) and the GI50 (KM12) was 1.43 µM (inactive). For the same compound, the GI50 (COLO 205) was 1.62 µM (inactive), the GI50 (SW-620) was 0.582 µM (active) and the GI50 (M19-MEL) was 1.1 µM (active). The GI50 (SNB-75) was 1.05 µM (active), the GI50 (LOX IMVI) was 0.711 µM (active) and the GI50 (HCC 2998) was 1.36 µM (inactive). For the same compound, the GI50 (K562) was 0.832 µM (active), the GI50 (HOP-92) was 1.87 µM (inactive) and the GI50 (NCI-H522) was 1.28 µM (inactive). The GI50 (NCI-H23) was 1.2 µM (inactive), the GI50 (UACC-257) was 1.55 µM (inactive) and the GI50 (SN12C) was 0.594 µM (active). The GI50 (HT-29) was 1.58 µM (inactive).
